Source: publication PMC7326016, “Structural Studies of Glutamate Dehydrogenase (Isoform 1) From Arabidopsis thaliana, an Important Enzyme at the Branch-Point Between Carbon and Nitrogen Metabolism” (Frontiers in Plant Science, 2020)

What was measured:
[1] = biological target: T1, Glutamate dehydrogenase isoform 1 (AtGDH1) (Arabidopsis thaliana, UniProt Q43314); experiment: ITC (in presence of […] 2OG) and crystal structure at […] Å; format: binding
T1 construct: gene GDH1; full-length, 411 residues, homohexamer
T1 sequence (Q43314 whole entry, canonical isoform): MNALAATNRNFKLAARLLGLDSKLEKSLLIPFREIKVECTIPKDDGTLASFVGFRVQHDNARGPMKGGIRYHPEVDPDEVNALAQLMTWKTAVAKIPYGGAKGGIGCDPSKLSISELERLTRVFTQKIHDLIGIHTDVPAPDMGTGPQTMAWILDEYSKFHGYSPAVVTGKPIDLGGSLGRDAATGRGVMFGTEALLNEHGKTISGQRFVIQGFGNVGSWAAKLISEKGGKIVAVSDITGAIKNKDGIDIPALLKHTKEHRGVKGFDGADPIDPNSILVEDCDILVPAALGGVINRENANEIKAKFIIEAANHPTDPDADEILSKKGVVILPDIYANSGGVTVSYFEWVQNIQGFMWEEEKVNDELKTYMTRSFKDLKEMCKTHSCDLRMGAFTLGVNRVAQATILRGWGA

[2] = biological target: T1, Glutamate dehydrogenase isoform 1 (AtGDH1); experiment: crystal structure at […] Å (one closed subunit; ligand captured from E. coli; polder map); format: binding

Row | Kd [1] | Structure (SMILES) | crystal structure at 2.03 Å (one closed subunit); ligand captured from E. coli; p [2]
1 | 72 ± 6 µM | NC(=O)c1ccc[n+]([C@@H]2O[C@H](COP(=O)([O-])OP(=O)(O)OC[C@H]3O[C@@H](n4cnc5c(N)ncnc54)[C@H](O)[C@@H]3O)[C@@H](O)[C@H]2O)c1 [NAD^+] | –
2 | – | O=C(O)CCC(=O)C(=O)O [2-oxoglutarate] | the closed conformation subunit contains 2OG, the GDH reaction product, bound in the active site
